Measured values published in patent US6500421B1, “In vivo selection of primitive hematopoietic cells” (St. Jude Children's Research Hospital, priority 1999, dated 2002).

Assays:
[1] = system: murine myeloid progenitors; assay: In vivo treatment of normal mice; bone marrow cellularity and myeloid progenitor content per femur; conditions: for marrow cellularity / number of myeloid progenitors in the marrow: ip five consecutive days, 24 hrs after last treatment, TMTX 130 mg/kg, NBMPR-P 20 mg/kg, draflazine 20 mg/kg, alone or combined; for number of myeloid progenitors in the marrow: relative to untreated control mice
Method: FIGS. 3a & 3b show thymidine transport inhibitors sensitize murine progenitors to TMTX in vivo Normal C57B1/6, WBBF1+/+ or B6.C-H1^6/By (HW80) mice were administered TMTX (130 mg/kg), NBMPR-P (20 mg/kg) or draflazine (20 mg/kg) alone, or the combination of TMTX+NBMPR-P or TMTX+draflazine ip for five consecutive days. 24 hrs following the last treatment, mice were sacrificed and bone marrow cellularity and myeloid progenitor content per femur were analyzed relative to untreated mice.
To determine if the antifolate trimetrexate (TMTX), could be used to inhibit hematopoietic progenitor cells which had not been genetically modified to contain and express a mutant dihydrofolate reductase, we treated mice with high doses of TMTX and measured the myeloid progenitor and stem cell content in the bone marrow. Mice were intraperitoneally administered 100 or 130 mg/kg TMTX for five consecutive days. Bone marrow cellularity and progenitor content was examined relative to untreated mice 24 hrs after the final treatment. […] Thus, although differentiated murine hematopoietic cells are highly sensitive to TMTX in vivo, immature myeloid progenitors resist it's cytotoxic effects.
In order to determine whether the combination of TMTX and TTIs will kill murine myeloid progenitors in vivo, normal mice were intraperitoneally administered TMTX (130 mg/kg) together with either NBMPR-5′ monophosphate (NBMPR-P) (20 mg/kg) or draflazine (20 mg/kg) for five consecutive days. […] The myeloid progenitor content in the marrow was also measured following these various treatments. […] Thus, while TMTX alone is insufficient for the killing of myeloid progenitors in vivo, either draflazine or NBMPR-P can be used to sensitize progenitors to TMTX thereby allowing elimination of unmodified cells in vivo.

[2] = system: murine myeloid progenitors; assay: Defined in vitro liquid culture of unseparated murine bone marrow, myeloid progenitor assay after four days; assay type: cell-based, mice; conditions: TMTX 150 nM; for sensitization of progenitor cells to TMTX: TTI at 1.0 μM or 0.1 μM, 0.1 μM or 1 μM thymidine
Method: FIGS. 1a & 1b a show TTIs effectively block nucleoside salvage and potentiate TMTX toxicity at physiological concentrations of thyrnidine. Unseparated bone marrow from normal C57B1/6 or WBBF1+/+ mice were cultured in DMEM plus dialyzed FBS with or without 150 nM TMTX, […] hypoxanthine and 0.1, 1.0 or 10 μM thymidine. In addition, either A) NBMPR or B) draflazine at 0.1 or 1.0 μM were added to the indicated suspension cultures. Progenitors were assayed by a semisolid methylcellulose-based myeloid progenitor assay after four days of suspension culture.
We developed a defined in vitro liquid culture system to determine the mechanism by which murine myeloid progenitors escape killing with TMTX. This system involves the culture of unseparated murine bone marrow in medium supplemented with optimal concentrations of hematopoietic growth factors (IL-3 at 20 ng/ml, human IL-6 at 50 ng/ml, rat SCF at 50 ng/ml), and either undialyzed fetal bovine serum (FBS) or dialyzed FBS at 15% v/v final concentration, that has been depleted of detectable thymidine and hypoxanthine. The progenitor content is determined four days after culture initiation.
The number of progenitors in cultures without TMTX were similar using either dialyzed or undialyzed serum. However, TMTX addition (150 nM) allowed survival of at least 50% of the myeloid progenitors in cultures containing undialyzed serum compared to 5% progenitor survival in cultures containing dialyzed serum.
Thymidine transport inhibitors (TTI) were added to our defined liquid culture system. […] However, supraphysiological thymidine levels (10 μM) were able to overcome the TTI-specific blockage of thymidine import, restoring full progenitor survival.

[3] = system: human CD34 immunoselected progenitors; assay: Human CD34-enriched peripheral blood progenitors in defined liquid culture; assay type: cell-based; conditions: 1.0 μM draflazine, 150 nM trimetrexate, 100 μM hypoxanthine, thymidine 0 to 1.0 micromolar, dialyzed serum
Method: CD34-enriched, mobilized peripheral blood progenitors were assayed in the defined suspension culture system, as described for murine cells in the legend to FIG. 1. Two separate human samples were examined, and progenitor survival is represented relative to progenitors cultured without TMTX.
We examined the ability of draflazine to potentiate TMTX toxicity of human CD34 immunoselected progenitors in our defined liquid culture system comprising 15% dialyzed fetal calf serum, 20 ng/ml human IL-3, 50 ng/ml human IL-6, and 50 ng/ml human SCF in the presence-or absence of 1.0 μM draflazine, 100 μM hypoxanthine, 150 nM trimetrexate, and varying concentrations of thymidine ranging from 0 to 1.0 micromolar. […] CD34 selection was done using a Ceprate cell column (CellPro) according to the manufacturers instructions.

[4] = system: human myeloid progenitor cells; assay: L22Y-DHFR or neo transduced human peripheral blood progenitors plated in semisolid media with TMTX; assay type: cell-based; conditions: mobilized human peripheral blood progenitors, L22Y-DHFR versus neo transduced, TMTX 0 to 500 ng/ml in semisolid media
Method: Peripheral blood cells collected following chemotherapy and growth factor mobilization were prestimulated for 48 hrs with IL-3, IL-6 and SCF, followed by coculture on irradiated amphotropic retroviral producers (L22Y-DHFR or neo) for an additional 48 hrs. Nonadherent hematopoietic cells were then assayed for drug resistant progenitors by addition of increasing concentrations of TMTX to the semisolid methylcellulose cultures.
Human progenitor cells were transduced as follows. Mononuclear cells were isolated by passing peripheral blood cells over a Ficoll gradient. These cells were cultured at 5×10^5 cells/ml in the presence of human IL-3 at 20 ng/ml, human IL-6 at 50 ng/ml, and human SCF at 50 ng/ml and 15% v/v fetal calf serum. After 48 hours, these cells were placed on plates containing an irradiated confluent layer of fibroblasts that were producing the amphotropic L22Y vector. The cytokine concentrations during this coculture period were identical to that used during the previous prestimulation phase. Protamine sulfate was also included during the coculture phase at a concentration of 4 μg/ml. After 48 hours of coculture, cells were washed and plated in semisolid media obtained from Stem Cell Technologies according to manufacturers specifications. This media was pretreated with thymidine phosphorylase at 1 unit/3 ml of media. […]

hematopoietic stem cells = assay: Stem cell kill: marrow of treated C57B1/6J donors transplanted into W/Wv mice, hemoglobin electrophoresis; assay type: in vivo; conditions: donors given five daily doses of TMTX at 100 mg/kg/day
Method: C57B1/6 donor mice were administered either 100 mg/kg TMTX, 100 mg/kg TMTX+20 mg/kg NBMPR-P, or 130 mg/kg TMTX+20 mg/kg NBMPR-P ip for five consecutive days. 24 hrs following the last treatment, bone marrow was harvested and transplanted into genetically anemic W/W^V mice. The hemoglobin phenotype of transplanted mnice was determined after 8 weeks.
The above experiments indicate that the combination of an antifolate (TMTX) and TTIs effectively eliminates unmodified myeloid progenitors. Although selection at the progenitor level should be useful in a number of circumstances, selection at the level of repopulating stem cells should give the most durable and stable selection of vectormodified cells. To test if the combination of TMTX and NBMPR-P could be used to kill unmodified stem cells, C57B1/6J mice were treated with various drug combinations (intraperitoneal injections at the following doses: trimetrexate at 130 mg/kg, NBMPR-P at 20 mg/kg, and draflazine at 20 mg/kg) and then used as donors for bone marrow transplantation. Stem cell viability was measured by hemoglobin electrophoresis patterns in W/Wv mice used as transplant recipients. […]
Repopulation can be monitored by hemoglobin electrophoresis, which can distinguish the pattern obtained from C57B1/6J erthryocytes versus the W/Wv background.

[5] = system: vector-expressing myeloid progenitor cells; conditions: mice, human DHFR variant (Zhao et al. 1994); cited from earlier work
[6] = system: human myeloid progenitor cells; conditions: in vitro, MTX-containing cultures, human DHFR variant (Flasshove et al. 1995); cited from earlier work

In the case of `O=[N+]([O-])c1ccc(CSc2ncnc3c2ncn3[C@@H]2O[C@H](COP(=O)(O)O)[C@@H](O)[C@H]2O)cc1` [NBMPR-P, NBMPR-5′ monophosphate], the marrow cellularity [1] is reported as “neither TTI alone had any measurable effect” and the “number of myeloid progenitors in the marrow” value (“number … in the marrow” for short) [1] is reported as “no effect on progenitor survival”.
In the case of `O=[N+]([O-])c1ccc(CSc2ncnc3c2ncn3[C@@H]2O[C@H](CO)[C@@H](O)[C@H]2O)cc1` [NBMPR, nitrobenzylmercaptopurine riboside], the “sensitization of progenitor cells to TMTX” value [2] is reported as “effectively sensitized progenitor cells to TMTX”.
For `NC(=O)C1CN(CCCCC(c2ccc(F)cc2)c2ccc(F)cc2)CCN1CC(=O)Nc1c(Cl)cc(N)cc1Cl` (stereo not shown) [draflazine], the “sensitization of progenitor cells to TMTX” value [2] was “effectively sensitized progenitor cells to TMTX”, the marrow cellularity [1] was “neither TTI alone had any measurable effect” and the “number … in the marrow” value [1] was “no effect on progenitor survival”. The “potentiation of TMTX toxicity” value [3] was “effectively potentiated TMTX toxicity”.
In the case of `COc1cc(NCc2ccc3nc(N)nc(N)c3c2C)cc(OC)c1OC` [TMTX, trimetrexate], the “rescue of myeloid progenitors from TMTX toxicity” value ([2]; dialyzed serum treated with thymidine phosphorylase, hypoxanthine 100 μM alone added) is reported as “did not rescue myeloid progenitors from TMTX toxicity”, the myeloid progenitor survival ([2]; dialyzed serum, both thymidine and hypoxanthine added) is reported as “fully restored myeloid progenitor survival” and the progenitor survival ([2]; dialyzed serum, four days) is reported as 5%. For the same molecule, the “restoration of TMTX resistance of progenitors” value ([2]; dialyzed serum, thymidine 1.0 μM alone added) was “did not restore TMTX resistance”, the “survival of myeloid progenitors” value ([2]; undialyzed serum, four days) was “at least 50%” and the “number of myeloid progenitors and stem cells per femur” value ([1]; TMTX 100 or 130 mg/kg ip for five consecutive days, 24 hrs after final treatment) was “remained the same in all groups of mice”. The bone marrow cellularity ([1]; TMTX 100 or 130 mg/kg ip for five consecutive days, 24 hrs after final treatment, relative to untreated mice) was “severe marrow hypoplasia”, the “number … in the marrow” value [1] was “modest increase” and the “TMTX resistance of L22Y-DHFR transduced progenitors” value [4] was “increased TMTX-resistance relative to control (neo) transduced progenitor cells”. For the same molecule, the “hematopoietic repopulating ability of donor marrow” value (hematopoietic stem cells) was “failed to adversely effect”.
In the case of `CN(Cc1cnc2nc(N)nc(N)c2n1)c1ccc(C(=O)N[C@@H](CCC(=O)O)C(=O)O)cc1` [MTX, methotrexate], the “increase in vector-expressing myeloid progenitor cells following MTX treatment” value [5] is given as 2 fold and the “amplification of vector-expressing progenitor cells” value [6] is given as “amplified two-fold”.
